In US11691960B2, “2-[thiophen-2-yl)formamido]-N-(phenyl)-2-methylpropanamide derivatives and the use thereof as medicament” (Boehringer Ingelheim International GmbH, priority 2020, dated 2023):

Legend:
[1] = tested on: human hepatocytes; experiment: Assay D: metabolic stability in human hepatocytes; format: in vitro ADME
Protocol: Assay D. Assessment of Metabolic Stability in Human Hepatocytes
The metabolic degradation of the test compound is assayed in a hepatocyte suspension. After recovery from cryopreservation, human hepatocytes are incubated in Dulbecco's modified eagle medium supplemented with 3.5 μg glucagon/500 mL, 2.5 mg insulin/500 mL and 3.75 mg/500 mL hydrocortisone) containing 5% or 50% human serum or in absence of serum.
Following a 30 min preincubation in a cell culture incubator (37° C., 10% CO2), 5 μl of test compound solution (80 μM; derived from a 2 mM DMSO stock solution by dilution 1:25 with medium) are added into 395 μl hepatocyte suspension, resulting in a final cell density of 1 Mio cells/mL, a final test compound concentration of 1 μM, and a final DMSO concentration of 0.05%.
The cells are incubated for six hours (incubator, orbital shaker) and samples (25 μl) are removed from the incubation after 0, 0.5, 1, 2, 4 and 6 hours. Samples are transferred into acetonitrile and pelleted by centrifugation (5 min). The supernatant is transferred to a new 96-deepwell plate, evaporated under nitrogen and resuspended prior to analysis of decline of parent compound by HPLC-MS/MS.
CLint is calculated as follows: CL_INTRINSIC=k/CD×1000/60 k: slope of the regression line for parent decline [h^−1], CD: cell density of vital cells [10e6 cells/mL],
The calculated in vitro hepatic intrinsic clearance is scaled up to the intrinsic in vivo hepatic Clearance and used to predict hepatic in vivo blood clearance (CL) by the use of a liver model (well stirred model): CL_INTRINSIC_INVIVO [ml/min/kg]=(CL_INTRINSIC [μL/min/10e6 cells]×hepatocellularity [10e6 cells/g liver]×liver factor [g/kg bodyweight])/1000 CL[ml/min/kg]=CL_INTRINSIC_INVIVO [ml/min/kg]×hepatic blood flow [ml/min/kg]/(CL_INTRINSIC_INVIVO[ml/min/kg]+hepatic blood flow [ml/min/kg])
Results are expressed as percentage of hepatic blood flow: QH[%]=CL[ml/min/kg]/hepatic blood flow [ml/min/kg])
Hepatocellularity, human: 120×10e6 cells/g liver
Liver factor, human: 25.7 g/kg bodyweight
Blood flow, human: 20.7 ml/(min×kg)

[2] = target: human androgen receptor (Homo sapiens (Human), UniProt P10275); experiment: Assay B: human androgen receptor luciferase reporter assay (Indigo Biosciences); format: cell-based; conditions: for Selectivity Assay B/Assay A: ratio IC50 androgen receptor / IC50 IDO1
Source text: Assay B. In Vitro Testing of Androgen Receptor Potency:
The human androgen receptor (AR) assay was run using Product #IB03001 from Indigo Biosciences. The cell line provided in this kit carries a reporter gene, induced upon AR stimulation. This reporter gene is cDNA encoding for beetle luciferase, a 62 kD protein originating from the North American firefly (Photinus pyralis). This luciferase catalyzes the mono-oxidation of D-luciferin yielding oxyluciferin, adenosine monophosphate, pyrophosphate, CO2, and photon emission. The luminescence intensity of the reaction is quantified using a luminometer.
To run the assay, the cells are thawed by adding pre-warmed cell recovery medium to each tube, then placed in a 37° C. water bath. 30000 viable cells in 200 μl are plated (collagen coated plates) and incubated at 37° C., ≥85% humidity, 5% CO2 for 24 hours. Media is replaced with compound screening medium. Cells are then challenged with 125 pM (EC80) 6a-Fl Testosterone and compounds are applied in half logarithmic dilutions from 10 μM to 10 nM. Assay plates are then incubated at 37° C., ≥85% humidity, 5% CO2 for 22-24 hours. Media is replaced with luciferase detection reagent and allowed 5 minutes to equilibrate prior to luminescence quantification.
Data Analysis consisted of calculating percentage of control between 100% (Negative control:6a-Fl Testosterone) and 0 (positive control: no 6a-FL Testosterone). Fitting of normalized values was made 4-Parameter sigmoidal binding curve (Log[conc]) vs. signal.

[3] = target: MDR1 (P-gp) (Homo sapiens (Human), UniProt P08183); experiment: Assay E: MDCK assay MDR-1 (P-gp); format: in vitro ADME; conditions: for efflux ratio at 2 h, 10 μM: human, MDCK-MDR1, pH 7.4, Table 7, final test concentration 10 μM, read-out: MDCK-MDR1 efflux ratio (Assay E)
Protocol: The MDCK assays provide information on the potential of a compound to pass the blood brain barrier. Permeability measurements across polarized, confluent MDCK-MDR1 cell monolayers grown on permeable filter supports are used as an in vitro absorption model: apparent permeability coefficients (PE) of the compounds across the MDCK-MDR1 cell monolayers are measured (pH 7.4, 37° C.) in apical-to-basal (AB) and basal-to-apical (BA) transport direction. The AB permeability (PEAB) represents drug absorption from the blood into the brain and the BA permeability (PEBA) drug efflux from the brain back into the blood via both, passive permeability as well as active transport mechanisms mediated by efflux and uptake transporters that are expressed on the MDCK-MDR1 cells, predominantly by the overexpressed human MDR1. Identical or similar permeabilities in both transport directions indicate passive permeation, vectorial permeability points to additional active transport mechanisms. Higher PEBA than PEAB (PEBA/PEAB >3) indicates the involvement of active efflux mediated by MDR1, which might compromise the goal to achieve sufficient brain exposure.
Assay E. MDCK assay MDR-1 (P-gp)
Apparent permeability coefficients (Papp) of the compounds across MDCK-MDR1 monolayers (MDCKII cells transfected with human MDR1 gene) are measured in apical-to-basal (AB) and basal-to-apical (BA) direction.
MDCK-MDR1 cells (6×10^5 cells/cm^2) are seeded onto filter inserts (Corning, Transwell, polycarbonate, 0.4 μm pore size) and cultured for 9 to 10 days. Compounds dissolved in DMSO stock solution (1-20 mM) are diluted with HTP-4 buffer (128.13 mM NaCl, 5.36 mM KCl, 1 mM MgSO4, 1.8 mM CaCl2, 4.17 mM NaHCO3, 1.19 mM Na2HPO4, 0.41 mM NaH2PO4, 15 mM HEPES, 20 mM glucose, pH 7.4) supplemented with 0.25% BSA to prepare the transport solutions, resulting in a final test concentration of 1 μM or 10 μM and a final DMSO content of 0.5%. The transport solution is applied to the apical or basolateral donor side for measuring A-B or B-A permeability, respectively. The receiver side contains HTP-4 buffer supplemented with 0.25% BSA. Samples are collected at the start and end of experiment from the donor and at various time intervals for up to 2 hours from the receiver side for concentration measurement by HPLC-MS/MS. Sampled receiver volumes are replaced with fresh receiver solution.
All data reported for Assay E were measured with a final test concentration of 10 μM.

MDR1 (P-gp), sequence (P08183 whole entry): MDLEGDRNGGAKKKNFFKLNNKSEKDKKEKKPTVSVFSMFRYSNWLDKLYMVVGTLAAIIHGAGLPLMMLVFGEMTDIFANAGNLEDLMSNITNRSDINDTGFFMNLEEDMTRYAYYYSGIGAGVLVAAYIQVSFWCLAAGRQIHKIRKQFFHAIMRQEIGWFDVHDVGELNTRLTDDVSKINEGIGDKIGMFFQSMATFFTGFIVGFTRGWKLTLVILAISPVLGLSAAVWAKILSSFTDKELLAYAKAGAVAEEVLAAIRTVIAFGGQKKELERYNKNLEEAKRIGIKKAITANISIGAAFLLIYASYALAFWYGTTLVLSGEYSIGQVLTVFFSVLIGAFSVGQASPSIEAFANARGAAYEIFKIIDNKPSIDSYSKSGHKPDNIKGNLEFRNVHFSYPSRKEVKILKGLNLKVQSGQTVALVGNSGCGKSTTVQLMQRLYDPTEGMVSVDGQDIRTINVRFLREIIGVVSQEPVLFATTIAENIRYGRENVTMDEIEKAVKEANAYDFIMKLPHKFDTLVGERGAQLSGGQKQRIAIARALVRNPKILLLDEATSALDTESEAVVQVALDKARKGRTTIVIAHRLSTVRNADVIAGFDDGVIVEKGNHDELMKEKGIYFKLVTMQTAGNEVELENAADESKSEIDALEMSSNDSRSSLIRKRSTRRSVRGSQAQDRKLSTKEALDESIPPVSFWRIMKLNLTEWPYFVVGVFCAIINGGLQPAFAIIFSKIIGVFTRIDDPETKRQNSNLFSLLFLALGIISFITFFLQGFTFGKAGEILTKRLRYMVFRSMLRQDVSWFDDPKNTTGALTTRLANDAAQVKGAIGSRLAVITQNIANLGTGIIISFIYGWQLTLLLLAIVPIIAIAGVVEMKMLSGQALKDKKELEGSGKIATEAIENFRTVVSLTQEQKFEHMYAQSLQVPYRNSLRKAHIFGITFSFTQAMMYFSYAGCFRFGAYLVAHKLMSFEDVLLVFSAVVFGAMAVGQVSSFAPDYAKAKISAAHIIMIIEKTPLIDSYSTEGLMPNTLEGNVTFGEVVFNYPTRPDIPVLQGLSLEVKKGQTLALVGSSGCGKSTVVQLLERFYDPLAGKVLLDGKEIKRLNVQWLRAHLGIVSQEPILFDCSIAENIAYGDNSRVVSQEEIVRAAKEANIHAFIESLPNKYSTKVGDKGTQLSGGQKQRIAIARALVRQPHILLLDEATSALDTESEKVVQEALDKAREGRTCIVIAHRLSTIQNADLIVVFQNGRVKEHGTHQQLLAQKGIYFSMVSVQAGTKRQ
human androgen receptor, sequence (P10275 whole entry): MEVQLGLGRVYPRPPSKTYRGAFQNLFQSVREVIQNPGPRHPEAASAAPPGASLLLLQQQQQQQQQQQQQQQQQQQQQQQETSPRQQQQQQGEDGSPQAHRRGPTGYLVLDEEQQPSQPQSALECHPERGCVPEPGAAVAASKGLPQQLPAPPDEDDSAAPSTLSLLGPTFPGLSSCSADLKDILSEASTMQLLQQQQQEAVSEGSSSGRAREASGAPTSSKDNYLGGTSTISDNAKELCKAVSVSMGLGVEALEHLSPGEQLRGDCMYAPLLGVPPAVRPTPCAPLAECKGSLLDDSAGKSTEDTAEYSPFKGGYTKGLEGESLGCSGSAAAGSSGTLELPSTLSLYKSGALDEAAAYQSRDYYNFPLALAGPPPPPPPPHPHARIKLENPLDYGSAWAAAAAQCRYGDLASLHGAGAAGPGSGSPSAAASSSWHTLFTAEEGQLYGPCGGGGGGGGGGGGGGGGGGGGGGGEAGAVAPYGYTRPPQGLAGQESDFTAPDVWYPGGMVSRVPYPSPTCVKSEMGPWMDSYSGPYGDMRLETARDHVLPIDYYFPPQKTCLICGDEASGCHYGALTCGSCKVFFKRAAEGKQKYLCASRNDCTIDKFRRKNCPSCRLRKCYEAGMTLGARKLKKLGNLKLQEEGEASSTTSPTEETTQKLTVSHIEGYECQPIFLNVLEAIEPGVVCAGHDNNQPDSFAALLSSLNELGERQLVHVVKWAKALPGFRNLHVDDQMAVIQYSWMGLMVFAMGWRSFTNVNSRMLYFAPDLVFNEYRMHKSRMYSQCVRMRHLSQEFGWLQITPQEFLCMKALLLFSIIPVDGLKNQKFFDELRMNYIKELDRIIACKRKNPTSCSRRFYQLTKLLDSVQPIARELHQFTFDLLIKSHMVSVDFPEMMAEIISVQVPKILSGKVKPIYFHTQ

CC(C)(NC(=O)c1ccc(Cl)s1)C(=O)Nc1ccc(Cl)c(F)c1 [Example 3, 2-[(5-chlorothiophen-2-yl)formamido]-N-(4-chloro-3-fluorophenyl)-2-methylpropanamide]
metabolic stability in human hepatocytes (in words) [1]: metabolically stable
Selectivity Assay B/Assay A [2]: 33
in vitro efflux, MDCK-MDR1 (in words) [3]: neither in vitro nor in vivo efflux
efflux ratio at 2 h, 10 μM [3]: 0.5

CC(C)(NC(=O)c1ccc(Cl)s1)C(=O)Nc1ccc(Br)cc1 [Example 4, 2-[(5-chlorothiophen-2-yl)formamido]-N-(4-bromophenyl)-2-methylpropanamide]
metabolic stability in human hepatocytes (in words) [1]: metabolically stable
IC50 ([2]; challenge with 125 pM (EC80) 6a-Fl Testosterone, mean +− standard deviation): > 10 µM
Selectivity Assay B/Assay A [2]: >42
in vitro efflux, MDCK-MDR1 (in words) [3]: neither in vitro nor in vivo efflux
efflux ratio at 2 h, 10 μM [3]: 0.5
